Test [1] deals with CD4+ T cell clones NW2337-CD4-1 and NW2337-CD4-10. The test is described as follows: Peptide titration ELISPOT assay with overlapping NY-ESO-1 peptides. Particulars: peptide 10 μM to 0.1 nM pulsed onto autologous EBV-B-cells. In kind it is cell-based, human. The protocol: (§1) The CD4^+ T cells were restimulated weekly with 1 μg/ml of the peptide being used. On day 12, each CD4^+ culture was assayed for NY-ESO-1 peptide recognition, using the ELISPOT assay of lager, et al., Proc. Natl. Acad. Sci. USA, 97(9):4760-4765 (2000), incorporated by reference. To elaborate on this procedure, flat-bottomed, 96-well nitrocellulose plates were coated with 5 μg/ml of anti-interferon-gamma antibody and incubated overnight at 4° C. After washing with PBS, plates were blocked with 10% human serum (HS) for 1 hour at 37° C. Depending on the effector:target ratio used, various numbers of presensitized CD4^+ T-cells were added to each well along with 5×10^4 autologous peptide pulsed EBV transfected B cells (“EBV-B cells”) serving as target cells and incubated for 16 hours at 37° C. in TCM without IL-2. Plates were then washed extensively (6 times with a solution of 0.05% Tween 20/PBS), and biotinylated anti-interferon-gamma detection antibody was added at a concentration of 0.5 μg/ml. After incubation for 2 h at 37° C., plates were washed and incubated with ABC-AP Vectastain for 1 hour. Plates were washed again and developed with substrate (BCIP/NPT) until blue spots were visible. The number of blue spots/well represented the proportion of NY-ESO-1 specific CD4^+ T-cells/well was finally counted under the microscope.
To further identify the exact epitope required for CD4^+ T cell recognition by these two CD4^+ T cell clones, a peptide titration assay was performed using overlapping NY-ESO-1 peptides (FIG. 2) at concentrations between 10 μM and 0.1 nM, pulsed onto autologous EBV-B-cells and tested in ELISPOT assays (FIG. 3).

Test [2] concerns CD4+ T cells. The experiment in a line: IFN-γ ELISPOT of CD4+ T cells presensitized with overlapping NY-ESO-1 18 mer peptides. The note with it: for Patient T cells 1 / Patient T cells 2 / Patient T cells 3: IFN-γ ELISPOT; for Patient T cells 1: day 12, CD4+ T cells of patient 1, autologous peptide pulsed EBV-B cells as targets; for Patient T cells 2: day 12, CD4+ T cells of patient 2, autologous peptide pulsed EBV-B cells as targets; for Patient T cells 3: day 12, CD4+ T cells of patient 3, autologous peptide pulsed EBV-B cells as targets; for patients whose CD4+ T cells recognized the peptide: three patients tested. In kind it is cell-based, human. The protocol:
Peripheral blood mono-nuclear cells (“PBMCs”) were separated from heparinized blood via Ficoll density gradient separation, using standard, art recognized techniques. Once this was done, the CD4^+ and CD8^+ T cells were separated from each other using magnetic cell sorting techniques which are well known to the art, producing CD4^+, CD8^+, and CD4^−/CD8^− cell populations.
A series of 18 mer peptides were prepared from the amino acid sequence of NY-ESO-1 as set forth in, e.g., U.S. Pat. No. 5,804,381, incorporated by reference. The peptides were designed to cover the entire sequence of NY-ESO-1, and to provide overlap.
The peptides were then individually pulsed to antigen presenting cells (“APCs”). These were CD4^−/CD8^− PBMCs taken from the same subjects who had provided the CD4^+ and CD8^+ cells. These APCs were irradiated with 3000 rads, and then pulsed with one of the peptides, at a concentration of 10 μg/ml, for 1 hour, in serum free medium. These APCs were then washed, and added to the CD4^+ cells. In the pulsing experiments, the peptides were solubilized in DMSO (100%) and then diluted with PBS to a final concentration of 10% DMSO. The CD4^+ cells had been cultured in a medium of L-arginine (242 mg/l), L-asparagene (50 mg/l), L-glutamine (300 mg/l), penicillin (10 IU/ml), streptomycin (100 μg/ml), 1% non-essential amino acids, 10% HS, and 10 ng/ml of recombinant human IL-2.
as §1
The EBV-B-cells were generated from each patients' PBMC following standard methods and maintained in RPMI 1640 medium supplemented with 10 mM Hepes buffer, L-arginine (242 mg/l), L-asparagine (50mg/l), L-glutamine (300 mg/l), penicillin (10 IU/ml), streptomycin (100 μg/ml), 1% non-essential amino acids, and 10% FCS. […] PBMC's or EBV-B-cells were molecularly typed for HLA expression using standard procedures.

For “61-80: overlapping 20 mer NY-ESO-1 peptide, amino acids 61-80 (PRGPHGGAASGLNGCCRCGA; UniProt P78358 61-80, looked up, fragment) [Peptide 61-80]”, the “recognition by clone NW2337-CD4-10” value in test [1] was “able to recognize”.

Regarding “p1-18: synthetic 18 mer peptide, amino acids 1-18 of NY-ESO-1 (MQAEGRGTGGSTGDADGP; UniProt P78358 1-18, looked up, fragment)”, in test [2], the “Patient T cells 1” value is “− (− indicates <50 spots)”, the “Patient T cells 2” value is “− (− indicates <50 spots)” and the “Patient T cells 3” value is listed as “− (− indicates <50 spots)”.

As for “p7-24: synthetic 18 mer peptide, amino acids 7-24 of NY-ESO-1 (GTGGSTGDADGPGGPGIP; UniProt P78358 7-24, looked up, fragment)”, in test [2], the “Patient T cells 1” value is “− (− indicates <50 spots)”, the “Patient T cells 2” value is recorded as “− (− indicates <50 spots)” and the “Patient T cells 3” value is “− (− indicates <50 spots)”.

“p51-70: overlapping 20 mer NY-ESO-1 peptide, amino acids 51-70 (ARASGPGGGAPRGPHGGAAS; UniProt P78358 51-70, looked up, fragment)”: in test [1], the “recognition by clone NW2337-CD4-1” value is “recognized”.

As to “p85-102: synthetic 18 mer peptide, amino acids 85-102 of NY-ESO-1 (SRLLEFYLAMPFATPMEA; UniProt P78358 85-102, looked up, fragment)”, in test [2], the “Patient T cells 1” value is on record as “− (− indicates <50 spots)”, the “Patient T cells 2” value was “− (− indicates <50 spots)” and the “Patient T cells 3” value is on record as “− (− indicates <50 spots)”.

On to “p91-108: synthetic 18 mer peptide, amino acids 91-108 of NY-ESO-1 (YLAMPFATPMEAELARRS; UniProt P78358 91-108, looked up, fragment)”, for which, in test [2], the “Patient T cells 1” value was “− (− indicates <50 spots)”, the “Patient T cells 2” value is listed as “− (− indicates <50 spots)” and the “Patient T cells 3” value is “− (− indicates <50 spots)”.

With “p97-114: synthetic 18 mer peptide, amino acids 97-114 of NY-ESO-1 (ATPMEAELARRSLAQDAP; UniProt P78358 97-114, looked up, fragment)”, in test [2], the “Patient T cells 1” value is given as “− (− indicates <50 spots)”, the “Patient T cells 2” value is recorded as “+ (+ indicates >50 spots (all + scores indicated were >100 spots))”, the “Patient T cells 3” value is recorded as “− (− indicates <50 spots)” and the “patients whose CD4+ T cells recognized the peptide” value is on record as “one patient”.

For the substance “p103-120: synthetic 18 mer peptide, amino acids 103-120 of NY-ESO-1 (ELARRSLAQDAPPLPVPG; UniProt P78358 103-120, looked up, fragment)”, in test [2], the “Patient T cells 1” value was “− (− indicates <50 spots)”, the “Patient T cells 2” value is given as “+ (+ indicates >50 spots (all + scores indicated were >100 spots))”, the “Patient T cells 3” value was “− (− indicates <50 spots)” and the “patients whose CD4+ T cells recognized the peptide” value is “one patient”.

Consider “p109-126: synthetic 18 mer peptide, amino acids 109-126 of NY-ESO-1 (LAQDAPPLPVPGVLLKEF; UniProt P78358 109-126, looked up, fragment)”, for which, in test [2], the “Patient T cells 1” value is “− (− indicates <50 spots)”, the “Patient T cells 2” value is “− (− indicates <50 spots)” and the “Patient T cells 3” value is given as “− (− indicates <50 spots)”.

Consider “p115-132: synthetic 18 mer peptide, amino acids 115-132 of NY-ESO-1 (PLPVPGVLLKEFTVSGNI; UniProt P78358 115-132, looked up, fragment)”, for which, in test [2], the “Patient T cells 1” value is “− (− indicates <50 spots)”, the “Patient T cells 2” value is recorded as “− (− indicates <50 spots)” and the “Patient T cells 3” value was “− (− indicates <50 spots)”.

In the case of “p127-144: synthetic 18 mer peptide, amino acids 127-144 of NY-ESO-1 (TVSGNILTIRLTAADHRQ; UniProt P78358 127-144, looked up, fragment)”, in test [2], the “Patient T cells 1” value is “− (− indicates <50 spots)”, the “Patient T cells 2” value is recorded as “− (− indicates <50 spots)” and the “Patient T cells 3” value is “− (− indicates <50 spots)”.

Consider “p133-150: synthetic 18 mer peptide, amino acids 133-150 of NY-ESO-1 (LTIRLTAADHRQLQLSIS; UniProt P78358 133-150, looked up, fragment)”, for which, in test [2], the “Patient T cells 1” value is listed as “− (− indicates <50 spots)”, the “Patient T cells 2” value is recorded as “− (− indicates <50 spots)” and the “Patient T cells 3” value was “− (− indicates <50 spots)”.

Regarding “p139-156: synthetic 18 mer peptide, amino acids 139-156 of NY-ESO-1 (AADHRQLQLSISSCLQQL; UniProt P78358 139-156, looked up, fragment)”, in test [2], the “Patient T cells 1” value was “− (− indicates <50 spots)”, the “Patient T cells 2” value is recorded as “− (− indicates <50 spots)” and the “Patient T cells 3” value is recorded as “− (− indicates <50 spots)”.

For the substance “p145-162: synthetic 18 mer peptide, amino acids 145-162 of NY-ESO-1 (LQLSISSCLQQLSLLMWI; UniProt P78358 145-162, looked up, fragment)”, in test [2], the “Patient T cells 1” value is on record as “− (− indicates <50 spots)”, the “Patient T cells 2” value is given as “− (− indicates <50 spots)” and the “Patient T cells 3” value was “− (− indicates <50 spots)”.

In the case of “p151-168: synthetic 18 mer peptide, amino acids 151-168 of NY-ESO-1 (SCLQQLSLLMWITQCFLP; UniProt P78358 151-168, looked up, fragment)”, in test [2], the “Patient T cells 1” value is “− (− indicates <50 spots)”, the “Patient T cells 2” value is “− (− indicates <50 spots)” and the “Patient T cells 3” value is “− (− indicates <50 spots)”.

Take “p157-174: synthetic 18 mer peptide, amino acids 157-174 of NY-ESO-1 (SLLMWITQCFLPVFLAQP; UniProt P78358 157-174, looked up, fragment)”: in test [2], the “Patient T cells 1” value is reported as “− (− indicates <50 spots)”, the “Patient T cells 2” value is given as “− (− indicates <50 spots)” and the “Patient T cells 3” value is recorded as “− (− indicates <50 spots)”.

As for “p163-180: synthetic 18 mer peptide, amino acids 163-180 of NY-ESO-1 (TQCFLPVFLAQPPSGQRR; UniProt P78358 163-180, looked up, fragment)”, in test [2], the “Patient T cells 1” value was “− (− indicates <50 spots)”, the “Patient T cells 2” value is listed as “− (− indicates <50 spots)” and the “Patient T cells 3” value is on record as “− (− indicates <50 spots)”.

The record behind these values is patent publication US7632506B2, “Identification of new NY-ESO-1 epitopes recognized by CD4+ T-cells” (Ludwig Institute for Cancer Research, priority 2005, dated 2009).
